Results from patent US7495104B2, “Quinoline or quinazoline derivatives inhibiting auto-phosphorylation of fibroblast growth factor receptors” (Kirin Beer Kabushiki Kaisha, priority 2001, dated 2009).
Where a name gives a salt, the structure may show the parent alone.

These compounds were tested against Bek (Homo sapiens, UniProt P21802) (assay: Inhibitory activity against Bek-autophosphorylation using ELISA method in OCUM-2MD3 cells). Details: 1 hr with compound, read-out: IC50 (concentration necessary for inhibiting 50% of Bek-phosphorylation).
Sequence of Bek (P21802 431-767 limits assumed): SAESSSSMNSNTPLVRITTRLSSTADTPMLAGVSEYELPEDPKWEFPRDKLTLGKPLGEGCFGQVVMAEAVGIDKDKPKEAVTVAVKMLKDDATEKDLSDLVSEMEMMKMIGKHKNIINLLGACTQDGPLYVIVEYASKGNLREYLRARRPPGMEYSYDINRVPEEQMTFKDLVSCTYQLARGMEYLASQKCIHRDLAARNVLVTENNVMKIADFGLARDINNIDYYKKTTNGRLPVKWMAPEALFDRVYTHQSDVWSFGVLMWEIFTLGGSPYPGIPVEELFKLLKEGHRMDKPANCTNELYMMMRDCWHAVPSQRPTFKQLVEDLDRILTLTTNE
Assay type: cell-based
Outline: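 Sandwich ELISA (anti-phosphotyrosine capture, anti-Bek detection, peroxidase, 450 nm) measured Bek autophosphorylation in OCUM-2MD3 lysates after 1 hr compound treatment at 37° C in 0.1% serum medium. IC50 derived by scaling between no-drug (100%) and excess positive control at 1000 nM (0%).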

IC50 [nM] | SMILES
49.6 | COc1cc2c(Oc3ccc(NC(=O)NCCC(C)(C)C)c(Cl)c3)ccnc2cc1OCCN1CCC(CCO)CC1 [Compound 292, 1-[2-Chloro-4-(7-{2-[4-(2-hydroxy-ethyl)-piperidin-1-yl]-ethoxy}-6-methoxy-quinolin-4-yloxy)-phenyl]-3-(3,3-dimethyl-butyl)-urea]
25.2 | COc1cc2c(Oc3ccc(NC(=O)NCCC(C)(C)C)c(Cl)c3)ccnc2cc1OCC1CCN(C)CC1 [Compound 169, 1-{2-Chloro-4-[6-methoxy-7-(1-methyl-piperidin-4-ylmethoxy)-quinolin-4-yloxy]-phenyl}-3-(3,3-dimethyl-butyl)-urea]
110 | COc1cc2c(Oc3ccc(Nc4ccc(C(C)(C)C)cc4)cc3)ccnc2cc1OCC(O)CN1CCC(N2CCCCC2)CC1 (centres unmarked) [Compound 258, 1-[1,4′]Bipiperidineyl-1′-yl-3-{4-[4-(4-tert-butyl-phenylamino)-phenoxy]-6-methoxy-quinolin-7-yloxy}-propan-2-ol]
95.9 | COc1cc2c(Oc3ccc(Nc4ccc(C(C)(C)C)cc4)cc3)ccnc2cc1OCCN(CCO)CCO [Compound 349, 2-[(2-{4-[4-(4-Tert-butyl-phenylamino)-phenoxy]-6-methoxy-quinolin-7-yloxy}-ethyl)-(2-hydroxy-ethyl)-amino]-ethanol hydrochloride]
321 | COc1cc2nccc(Oc3ccc(Nc4ccc(C(C)(C)C)cc4)cc3)c2cc1OC [Compound 5, (4-Tert-butylphenyl)-[4-(6,7-dimethoxyquinolin-4-yloxy)phenyl]amine]
< 10 | COc1cc2c(Oc3ccc(NC(=O)NCCC(C)(C)C)cc3)ccnc2cc1OCCN1CCC(CCO)CC1 [Compound 219, 1-(3,3-Dimethyl-butyl)-3-[4-(7-{2-[4-(2-hydroxy-ethyl)-piperidin-1-yl]-ethoxy}-6-methoxy-quinolin-4-yloxy)-phenyl]-urea]
54.8 | COc1cc2c(Oc3ccc(NC(=O)NCCC(C)(C)C)c(Cl)c3)ccnc2cc1OCCN1CCCCCC1 [Compound 185, 1-{4-[7-(2-Azepan-1-yl-ethoxy)-6-methoxy-quinolin-4-yloxy]-2-chloro-phenyl}-3-(3,3-dimethyl-butyl)-urea]
70.1 | COc1cc2c(Oc3ccc(Nc4ccc(C(C)(C)C)cc4)cc3)ccnc2cc1OCCN1CCC(O)CC1 [Compound 82, 1-(2-{4-[4-(4-Tert-butylphenylamino)phenoxy]-6-methoxy-quinolin-7-yloxy}ethyl)piperidin-4-ol]
242 | COc1cc2nccc(Oc3ccc(Nc4ccc(C(C)(C)C)cc4)c(C)c3C)c2cc1OC [Compound 16, (4-Tert-butylphenyl)-[4-(6,7-dimethoxyquinolin-4-yloxy)-2,3-dimethylphenyl]amine]
277 | COc1cc2c(Oc3ccc(Nc4ccc(C(C)(C)C)cc4)cc3Cl)ccnc2cc1OCCCN1CCC(CCO)CC1 [Compound 314, 2-[1-(3-{4-[4-(4-Tert-butyl-phenylamino)-2-chloro-phenoxy]-6-methoxy-quinolin-7-yloxy}-propyl)-piperidin-4-yl]-ethanol]
328 | COc1cc2c(Oc3ccc(Nc4ccc(C(C)(C)C)cc4)cc3)ccnc2cc1O [Compound 21, 4-[4-(4-Tert-butylphenylamino)phenoxy]-6-methoxy-quinolin-7-ol]
20.6 | COc1cc2c(Oc3ccc(NC(=O)NCCC(C)(C)C)cc3F)ccnc2cc1OCCCN1CC(C)OC(C)C1 (centres unmarked) [Compound 327, 1-(3,3-Dimethyl-butyl)-3-(4-{7-[3-(2,6-dimethyl-morpholin-4-yl)-propoxy]-6-methoxy-quinolin-4-yloxy}-3-fluoro-phenyl)-urea]
7130 | COc1cc2c(Oc3ccc(Nc4ccc(C(C)(C)C)cc4)cc3)ccnc2cc1OCCN(CCO)Cc1ccccc1 [Compound 365, 2-[Benzyl-(2-{4-[4-(4-tert-butyl-phenylamino)-phenoxy]-6-methoxy-quinolin-7-yloxy}-ethyl)-amino]-ethanol]
< 10 | COc1cc2c(Oc3ccc(NC(=O)NCCC(C)(C)C)cc3)ccnc2cc1OCCCN1CCC(CO)CC1 [Compound 265, 1-(3,3-Dimethyl-butyl)-3-(4-{7-[3-(4-hydroxymethyl-piperidin-1-yl)-propoxy]-6-methoxy-quinolin-4-yloxy}-phenyl)-urea]
68.9 | COc1cc2c(Oc3ccc(NC(=O)NCCC(C)(C)C)c(Cl)c3)ccnc2cc1OCCN1CCCC1 [Compound 165, 1-{2-Chloro-4-[6-methoxy-7-(2-pyrrolidin-1-yl-ethoxy)-quinolin-4-yloxy]-phenyl}-3-(3,3-dimethyl-butyl)-urea]
22 | COc1cc2c(Oc3ccc(NC(=O)NCCC(C)(C)C)cc3Cl)ccnc2cc1OCCCN1CC(C)OC(C)C1 (centres unmarked) [Compound 319, 1-(3-Chloro-4-{7-[3-(2,6-dimethyl-morpholin-4-yl)-propoxy]-6-methoxy-quinolin-4-yloxy}-phenyl)-3-(3,3-dimethyl-butyl)-urea]
18.7 | COc1cc2c(Oc3ccc(NC(=O)NCCC(C)(C)C)cc3Cl)ccnc2cc1OCCCN1CCOCC1 [Compound 318, 1-{3-Chloro-4-[6-methoxy-7-(3-morpholin-4-yl-propoxy)-quinolin-4-yloxy]-phenyl}-3-(3,3-dimethyl-butyl)-urea]
19.1 | COc1cc2c(Oc3ccc(NC(=O)NCCC(C)(C)C)cc3)ccnc2cc1OCCCN1CCN(C)CC1 [Compound 156, 1-(3,3-Dimethyl-butyl)-3-(4-{6-methoxy-7-[3-(4-methyl-piperazin-1-yl)-propoxy]-quinolin-4-yloxy}-phenyl)-urea hydrochloride]
33 | COc1cc2c(Oc3ccc(Nc4ccc(C(C)(C)C)cc4)cc3)ccnc2cc1OCCCN(C)CCO [Compound 52, 2-[(3-{4-[4-(4-Tert-butylphenylamino)phenoxy]-6-methoxy-quinolin-7-yloxy}propyl)methylamino]ethanol]
213 | COc1cc2nccc(Oc3ccc(Nc4ccc(C(C)(C)C)cc4)cc3)c2cc1OCCN(C)CCO [Compound 357, 2-[(2-{4-[4-(4-Tert-butyl-phenylamino)-phenoxy]-7-methoxy-quinolin-6-yloxy}-ethyl)-methyl-amino]-ethanol]
33.5 | COc1cc2c(Oc3ccc(NC(=O)NCCC(C)(C)C)c(Cl)c3)ccnc2cc1OCC1CCCNC1 (centres unmarked) [Compound 190, 1-{2-Chloro-4-[6-methoxy-7-(piperidin-3-ylmethoxy)-quinolin-4-yloxy]-phenyl}-3-(3,3-dimethyl-butyl)-urea]
405 | COc1cc2c(Oc3ccc(Nc4ccc(C(C)(C)C)cc4)cc3)ccnc2cc1OCC1CCCN(C)C1 (centres unmarked) [Compound 56, (4-Tert-butylphenyl)-{4-[6-methoxy-7-(1-methylpiperidin-3-ylmethoxy)quinolin-4-yloxy]phenyl}amine]
< 10 | COc1cc2c(Oc3ccc(NC(=O)NCCC(C)(C)C)cc3)ccnc2cc1OCCNCCO [Compound 372, 1-(3,3-Dimethyl-butyl)-3-(4-{7-[2-(2-hydroxy-ethylamino)-ethoxy]-6-methoxy-quinolin-4-yloxy}-phenyl)-urea]
371 | COc1cc2c(Oc3ccc(Nc4ccc(C(C)(C)C)cc4)cc3)ccnc2cc1OCCCN1CC(C)CC(C)C1 (centres unmarked) [Compound 233, (4-Tert-butyl-phenyl)-(4-{7-[3-(3,5-dimethyl-piperidin-1-yl)-propoxy]-6-methoxy-quinolin-4-yloxy}-phenyl)-amine]
895 | COc1cc2c(Oc3ccc(Nc4ccc(C(C)(C)C)cc4)cc3)ccnc2cc1OCCN1CC(C)CC(C)C1 (centres unmarked) [Compound 239, (4-Tert-butyl-phenyl)-(4-{7-[2-(3,5-dimethyl-piperidin-1-yl)-ethoxy]-6-methoxy-quinolin-4-yloxy}-phenyl)-amine]
10.6 | CCN(CC)CC(O)COc1cc2nccc(Oc3ccc(NC(=O)NCCC(C)(C)C)c(Cl)c3)c2cc1OC (centres unmarked) [Compound 191, 1-{2-Chloro-4-[7-(3-diethylamino-2-hydroxy-propoxy)-6-methoxy-quinolin-4-yloxy]-phenyl}-3-(3,3-dimethyl-butyl)-urea]
95 | CCN(CC)CCOc1cc2nccc(Oc3ccc(NC(=O)NCCC(C)(C)C)c(Cl)c3)c2cc1OC [Compound 167, 1-{2-Chloro-4-[7-(2-diethylamino-ethoxy)-6-methoxy-quinolin-4-yloxy]-phenyl}-3-(3,3-dimethyl-butyl)-urea]
14.4 | COc1cc2c(Oc3ccc(NC(=O)NCCC(C)(C)C)c(Cl)c3)ccnc2cc1OCCN1C[C@@H](C)O[C@@H](C)C1 [Compound 116, 1-(2-Chloro-4-{7-[2-(2,6-dimethyl-morpholin-4-yl)-ethoxy]-6-methoxy-quinolin-4-yloxy}-phenyl)-3-(3,3-dimethyl-butyl)-urea]
220 | COc1cc2c(Oc3ccc(Nc4ccc(C(C)(C)C)cc4)cc3)ccnc2cc1OCCCN1CCN(C)CC1 [Compound 35, (4-Tert-butylphenyl)-(4-{6-methoxy-7-[3-(4-methylpiperazin-1-yl)propoxy]quinolin-4-yloxy}phenyl)amine]

SMILES | IC50 [nM]
COc1cc2c(Oc3ccc(NC(=O)NCCC(C)(C)C)c(Cl)c3)ccnc2cc1OCCCCN1C(=O)c2ccccc2C1=O [Compound 164, 1-(2-Chloro-4-{7-[4-(1,3-dioxo-1,3-dihydro-isoindol-2-yl)-butoxy]-6-methoxy-quinolin-4-yloxy}-phenyl)-3-(3,3-dimethyl-butyl)-urea] | 260
COc1cc2c(Oc3ccc(NC(=O)NCCC(C)(C)C)c(F)c3)ccnc2cc1OC(=O)N1CCC(N2CCCCC2)CC1 [Compound 230, 4-{4-[3-(3,3-Dimethyl-butyl)-ureido]-3-fluoro-phenoxy}-6-methoxy-quinolin-7-yl [1,4′]bipiperidineyl-1′-carboxylate] | 32.1
COc1cc2nccc(Oc3ccc(NC(=O)NCCC(C)(C)C)cc3)c2cc1OCCCCN1CCOCC1 [Compound 227, 1-(3,3-Dimethyl-butyl)-3-{4-[7-methoxy-6-(4-morpholin-4-yl-butoxy)-quinolin-4-yloxy]-phenyl}-urea] | 23.9
